Where “and” joins values, the source holds several entries; their conditions need not be identical. Equal values may be shown once.
Key:
Type in all cases: cell-based, human
TAS2R5 = assay: RT-qPCR gene expression of TAS2R5 in HGT-1 cells; conditions: VAPFPEVF 17.5 µM, YFYPEL 0.03 µM, YQEPVLGPVRGPFPIIV 0.4 µM, normalized to PPIA and GAPDH and untreated cells, mean, n = 3–5
Protocol: (§1) For mRNA expression analysis, 800,000 cells were seeded in a T25 cell culture flask (25 cm^2) 1 day before the experiment. After incubation with 17.5 μM […], 0.03 μM YFYPEL, or 0.4 μM […] for 15, 30, 60, and 120 min, RNA was isolated using the peqGOLD RNA Kit (VWR Peqlab, USA) following the manufacturer’s protocol. Determination of RNA concentration (A260/A280 between 2.03 and 2.09) was performed on a NanoDrop One^c (Thermo Fisher Scientific Inc., USA). RNA integrity number (RIN 9.9–10.0, version 2.6, assay class Eukaryote Total RNA Nano) was analyzed using a 2100 Bioanalyzer (Agilent Technologies, USA). Removal of gDNA and synthesis of cDNA were performed using the iScript gDNA Clear cDNA Synthesis Kit (BioRad, Feldkirchen, Germany) following the manufacturer’s protocol. Real-time-qPCR (RT-qPCR) was performed with 50 ng cDNA amplified with SsoAdvanced Universal SYBR Green Supermix (Bio-Rad Laboratories, Inc., USA). The sequences of the forward and reverse primers of the 25 TAS2Rs were taken from Liszt et al.([13]) (Supporting Information Table-SI 3). Verified primers for the TAS1Rs (TAS1R1: qHsaCID0013443; TAS1R2: qHsaCID0016106; TAS1R3: qHsaCED0002321) and for MAPK1 (qHsaCEP0050000) were obtained from Bio-Rad Laboratories. PPIA[37] and GAPDH[38] were used as reference genes. The effects of the peptides on gene expression were analyzed in comparison to untreated control cells.

TAS2R43 = assay: RT-qPCR gene expression of TAS2R43 in HGT-1 cells; conditions: VAPFPEVF 17.5 µM, YFYPEL 0.03 µM, YQEPVLGPVRGPFPIIV 0.4 µM, normalized to PPIA and GAPDH and untreated cells, mean, n = 3–5
Protocol: as §1

TAS1R1 = assay: RT-qPCR gene expression of TAS1R1 in HGT-1 cells
Protocol: as §1

TAS2R31 = assay: RT-qPCR gene expression of TAS2R31 in HGT-1 cells; conditions: VAPFPEVF 17.5 µM, YFYPEL 0.03 µM, YQEPVLGPVRGPFPIIV 0.4 µM, normalized to PPIA and GAPDH and untreated cells, mean, n = 3–5
Protocol: as §1

TAS2R38 = assay: RT-qPCR gene expression of TAS2R38 in HGT-1 cells; conditions: VAPFPEVF 17.5 µM, YFYPEL 0.03 µM, YQEPVLGPVRGPFPIIV 0.4 µM, normalized to PPIA and GAPDH and untreated cells, mean, n = 3–5
Protocol: as §1, with “cells. […]” for “cells.”

TAS2R42 = assay: RT-qPCR gene expression of TAS2R42 in HGT-1 cells; conditions: VAPFPEVF 17.5 µM, YFYPEL 0.03 µM, YQEPVLGPVRGPFPIIV 0.4 µM, normalized to PPIA and GAPDH and untreated cells, mean, n = 3–5
Protocol: as §1

TAS2R30 = assay: RT-qPCR gene expression of TAS2R30 in HGT-1 cells; conditions: VAPFPEVF 17.5 µM, YFYPEL 0.03 µM, YQEPVLGPVRGPFPIIV 0.4 µM, normalized to PPIA and GAPDH and untreated cells, mean, n = 3–5
Protocol: as §1

TAS2R16 = assay: RT-qPCR gene expression of TAS2R16 in HGT-1 cells; conditions: VAPFPEVF 17.5 µM, YFYPEL 0.03 µM, YQEPVLGPVRGPFPIIV 0.4 µM, normalized to PPIA and GAPDH and untreated cells, mean, n = 3–5
Protocol: as §1, with “cells. […]” for “cells.”

HGT-1 cells = assay: Proton secretion assay (intracellular proton index IPX, SNARF-1-AM); conditions: for ΔIPX (change in intracellular proton index vs untreated cells): 0.1 µM, 10 min incubation in KRHB, IPX = log2 of 580/640 ratio, negative = stimulated proton secretion, n = 4–8; for ΔIPX (change in intracellular proton index vs untreated cells) / ΔIPX on co-incubation with probenecid: mean ± SEM; for proton secretion with peptide alone compared to untreated control cells: VAPFPEVF 17.5 µM, YFYPEL 0.03 µM, YQEPVLGPVRGPFPIIV 0.4 µM, p < 0.01; for proton secretion with peptide alone compared to untreated control cells / ΔIPX on co-incubation with probenecid: 10 min; for concentration with the lowest IPX value (minimum of curve fit; highest impact on secretory activity): curve fit over 0.01–200 µM proton secretion profile; for ΔIPX on co-incubation with probenecid: peptide (VAPFPEVF 17.5 µM, YFYPEL 0.03 µM, YQEPVLGPVRGPFPIIV 0.4 µM) + 1 mM probenecid, vs untreated cells
Protocol: The measurement of proton secretion from HGT-1 cells represents a well-established model for the identification of bitter compounds. By affecting extraoral bitter taste receptors with bitter compounds, a modulatory effect on proton secretion can be measured. For this purpose, cells were washed with KRHB and incubated with 3 μM of the intracellular pH indicator 1,5 carboxy-seminaphto-rhodafluor acetoxymethyl ester (SNARF-1-AM) under standard conditions. After 30 min, the cells were washed again with KRHB and then incubated with casein (0.01–10 μM equimolar related to the relevant forms αS1- and β-casein), hydrolysate (0.01–10 μM), or the peptides (0.01–200 μM). […] All substances were dissolved and diluted in KRHB. 1 mM histamine was used as a positive control. Measurements were performed using FlexStation 3 (Molecular Devices, USA). The excitation wavelength was 488 nm, and the emission wavelengths were 580 and 640 nm. For calibration (pH range 7.0–8.0), the intracellular and extracellular pH was adjusted with 2 μM nigericin in potassium buffer (20 mM NaCl, 110 mM KCl, 1 mM CaCl2, 1 mM MgSO4, 18 mM D-glucose, and 20 mM HEPES). The intracellular proton index (IPX) was calculated as the log2 value of the 580/640 ratio and compared with cells without treatment. Negative values represent increased secretion of protons and therefore stimulation of mechanisms regulating gastric acid secretion in HGT-1 cells. In contrast, positive values represent an inhibition of secretion compared to the untreated control.

Substance | change in gene expression of TAS2R5 (TAS2R5; incubation 15 min) [fold change] | change in gene expression of TAS2R5 (TAS2R5; incubation 30 min) [fold change] | change in gene expression of TAS2R5 (TAS2R5; incubation 60 min) [fold change] | change in gene expression of TAS2R5 (TAS2R5; incubation 120 min) [fold change] | change in gene expression of TAS2R43 (TAS2R43; incubation 15 min) [fold change] | change in gene expression of TAS2R43 (TAS2R43; incubation 30 min) [fold change] | change in gene expression of TAS2R43 (TAS2R43; incubation 60 min) [fold change] | change in gene expression of TAS2R43 (TAS2R43; incubation 120 min) [fold change] | change in gene expression of TAS2R31 (TAS2R31; incubation 15 min) [fold change] | change in gene expression of TAS2R31 (TAS2R31; incubation 30 min) [fold change] | change in gene expression of TAS2R31 (TAS2R31; incubation 60 min) [fold change] | change in gene expression of TAS2R31 (TAS2R31; incubation 120 min) [fold change] | change in gene expression of TAS2R38 (TAS2R38; incubation 15 min) [fold change] | change in gene expression of TAS2R38 (TAS2R38; incubation 30 min) [fold change] | change in gene expression of TAS2R38 (TAS2R38; incubation 60 min) [fold change] | change in gene expression of TAS2R38 (TAS2R38; incubation 120 min) [fold change] | change in gene expression of TAS2R42 (TAS2R42; incubation 15 min) [fold change] | change in gene expression of TAS2R42 (TAS2R42; incubation 30 min) [fold change] | change in gene expression of TAS2R42 (TAS2R42; incubation 60 min) [fold change] | change in gene expression of TAS2R42 (TAS2R42; incubation 120 min) [fold change] | other results
YFYPEL [bitter casein peptide αS1-CN144–149] | 1.34 | 1.03 | 0.90 | 1.02 | 1.49 | 0.64 | 0.91 | 1.02 | 1.65 | 0.91 | 0.96 | 1.09 | 2.96 | 3.40 | 2.39 | 2.91 | 1.17 | 0.55 | 0.69 | 0.93 | change in expression of TAS1R1 (TAS1R1; 0.03 µM YFYPEL, 30 min, p < 0.001): decrease; change in gene expression of TAS2R30 (TAS2R30; incubation 15 min): 1.79 fold change; change in gene expression of TAS2R30 (TAS2R30; incubation 30 min): 0.62 fold change; change in gene expression of TAS2R30 (TAS2R30; incubation 60 min): 0.89 fold change; change in gene expression of TAS2R30 (TAS2R30; incubation 120 min): 1.15 fold change; change in gene expression of TAS2R16 (TAS2R16; incubation 15 min): 2.58 fold change; change in gene expression of TAS2R16 (TAS2R16; incubation 30 min): 3.19 fold change and 3.19 ± 0.50 fold change; change in gene expression of TAS2R16 (TAS2R16; incubation 60 min): 2.44 fold change; change in gene expression of TAS2R16 (TAS2R16; incubation 120 min): 2.51 fold change; ΔIPX (change in intracellular proton index vs untreated cells) (HGT-1 cells): −0.253 ± 0.027; proton secretion with peptide alone compared to untreated control cells (HGT-1 cells): increased proton secretion; concentration with the lowest IPX value (minimum of curve fit; highest impact on secretory activity) (HGT-1 cells): 0.03 µM; ΔIPX on co-incubation with probenecid (HGT-1 cells): −0.001 ± 0.019
YQEPVLGPVRGPFPIIV [bitter casein peptide βA1/A2-CN193–209] | 1.25 | 1.45 | 1.39 | 1.22 | 0.69 | 1.44 | 1.15 | 0.88 | 0.86 | 1.43 | 1.33 | 0.99 | 2.01 | 3.71 | 2.05 | 2.38 | 0.62 | 1.38 | 1.18 | 0.94 | change in expression of TAS1R1 (TAS1R1; 15/30/60/120 min, VAPFPEVF 17.5 µM, YQEPVLGPVRGPFPIIV 0.4 µM, n = 3): no significant effect; change in gene expression of TAS2R30 (TAS2R30; incubation 15 min): 0.74 fold change; change in gene expression of TAS2R30 (TAS2R30; incubation 30 min): 1.88 fold change; change in gene expression of TAS2R30 (TAS2R30; incubation 60 min): 1.20 fold change; change in gene expression of TAS2R30 (TAS2R30; incubation 120 min): 0.89 fold change; change in gene expression of TAS2R16 (TAS2R16; incubation 15 min): 2.61 fold change; change in gene expression of TAS2R16 (TAS2R16; incubation 30 min): 3.46 fold change and 3.46 ± 0.58 fold change; change in gene expression of TAS2R16 (TAS2R16; incubation 60 min): 2.50 fold change; change in gene expression of TAS2R16 (TAS2R16; incubation 120 min): 3.00 fold change; ΔIPX (change in intracellular proton index vs untreated cells) (HGT-1 cells): −0.203 ± 0.048; proton secretion with peptide alone compared to untreated control cells (HGT-1 cells): increased proton secretion; concentration with the lowest IPX value (minimum of curve fit; highest impact on secretory activity) (HGT-1 cells): 0.4 µM; ΔIPX on co-incubation with probenecid (HGT-1 cells): −0.020 ± 0.036
